# Measurements published in the supplement of paper PMC12137928.
# Structures can show the parent of a compound that is named as a salt.
# System: HCT116
# Details: 72 h
# Outline: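 HCT116 cells were seeded at 250 per well in 1536-well plates with 5 h allowed for attachment. CellTiter-Glo luminescence was normalized against vehicle (0%) and positive control (-100%) before pattern correction. The IC50 and maximal efficacy figures derive from four-parameter Hill fits.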
IC50 cell viability (ICRF193 0 nM),IC50 cell viability (ICRF193 200 nM),SMILES
> 45.8 µM,> 45.8 µM,"CCCCCCCCCCCCCCCCCC(=O)OCC(C)O (stereo not given) [Octadecanoic acid, monoester with 1,2-propanediol]"
> 45.8 µM,> 45.8 µM,CO[C@@]1(NC(=O)C(C(=O)O)c2ccc(O)cc2)C(=O)N2C(C(=O)O)=C(CSc3nnnn3C)CO[C@@H]21 (stereo not given in full) [Moxalactam disodium]
> 45.8 µM,> 45.8 µM,C[C@@H]1CN(c2c(F)c(N)c3c(=O)c(C(=O)O)cn(C4CC4)c3c2F)C[C@H](C)N1 [Sparfloxacin]
> 45.8 µM,> 45.8 µM,COc1ccc(/C=C/C(=O)Nc2ccccc2C(=O)O)cc1OC [Tranilast]
> 45.8 µM,> 45.8 µM,C=C[C@]1(C)C[C@@H](OC(=O)CS[C@@H]2C[C@H]3CC[C@@H](C2)N3C)[C@]2(C)[C@H](C)CC[C@]3(CCC(=O)[C@H]32)[C@@H](C)[C@@H]1O [Retapamulin]
> 45.8 µM,> 45.8 µM,CCCc1ccc(OCC(=O)N2CCN(C(=O)COc3ccc(CCC)cc3OC)CC2)c(OC)c1 [Simetride]
> 45.8 µM,> 45.8 µM,CC(=O)OCC(=O)[C@@]1(O)[C@H](OC(C)=O)C[C@H]2[C@@H]3CCC4=CC(=O)C=C[C@]4(C)[C@@]3(F)[C@@H](O)C[C@@]21C [Triamcinolone diacetate]
> 45.8 µM,> 45.8 µM,O=C(O)/C=C(\CC(=O)O)C(=O)O [trans-Aconitic acid]
> 45.8 µM,> 45.8 µM,CC(=O)OC[C@H]1O[C@@H](n2ccc(=O)[nH]c2=O)[C@H](OC(C)=O)[C@@H]1OC(C)=O [Uridine triacetate]
> 45.8 µM,> 45.8 µM,COc1cc2nc(N3CCN(C(=O)C4CCCO4)CC3)nc(N)c2cc1OC (stereo not given) [Terazosin hydrochloride]
> 45.8 µM,> 45.8 µM,CCC(=O)O[C@]1(C(=O)COC(C)=O)CC[C@H]2[C@@H]3C[C@H](C)C4=CC(=O)C=C[C@]4(C)[C@H]3[C@@H](O)C[C@@]21C [Methylprednisolone aceponate]
> 45.8 µM,> 45.8 µM,CN(C)C(=N)NC(=N)N [Metformin]

# Second part, the compound before the results:
SMILES,IC50 cell viability (ICRF193 0 nM),IC50 cell viability (ICRF193 200 nM)
"CC1CC(OC(=O)c2ccccc2O)CC(C)(C)C1 (stereo not given) [3,3,5-Trimethylcyclohexyl salicylate]",> 45.8 µM,> 45.8 µM
CCCNC(C)(C)COC(=O)c1ccccc1 [Meprylcaine hydrochloride],> 45.8 µM,> 45.8 µM
O=C(O)CCCc1ccc(N(CCCl)CCCl)cc1 [Chlorambucil],> 45.8 µM,> 45.8 µM
CN(C)CCC=C1c2ccccc2COc2ccccc21 [Doxepin hydrochloride],> 45.8 µM,> 45.8 µM
CC(C)(C)NCC(O)c1cc(Cl)c(N)c(C(F)(F)F)c1 (stereo not given) [Mabuterol hydrochloride],> 45.8 µM,> 45.8 µM
Cl/C=C\C[N+]12CN3CN(CN(C3)C1)C2,> 45.8 µM,> 45.8 µM
Cc1nc(-c2ccc(OCC(C)C)c(C#N)c2)sc1C(=O)O [Febuxostat],> 45.8 µM,> 45.8 µM
COc1ccc(OC)c(C(O)C(C)N)c1 (stereo not given) [Methoxamine hydrochloride],> 45.8 µM,> 45.8 µM
COC(=O)CCc1ccc(OCC(O)CNC(C)C)cc1 (stereo not given) [Esmolol hydrochloride],> 45.8 µM,> 45.8 µM
COC(=O)[C@H]1[C@@H](OC(=O)c2ccccc2)C[C@@H]2CC[C@H]1N2C [(-)-Cocaine hydrochloride],> 45.8 µM,> 45.8 µM
COc1c(N2CCNC(C)C2)c(F)cc2c(=O)c(C(=O)O)cn(C3CC3)c12 (stereo not given) [Gatifloxacin],> 45.8 µM,> 45.8 µM
Oc1ccc(O)cc1 [Hydroquinone],> 45.8 µM,> 45.8 µM
"CCCCC/C=C/C/C=C/CCCCCCCC(=O)O [9(E),12(E)-Octadecadienoic acid]",> 45.8 µM,> 45.8 µM
Cc1cc(=O)oc2cc(O)ccc12 [4-Methylumbelliferone],> 45.8 µM,> 45.8 µM
CCN1CCN(c2cc(-c3ccc(F)cc3)c3c(n2)CCCCCC3)CC1 [Blonanserin],> 45.8 µM,> 45.8 µM
C[C@H]1C[C@H]2[C@@H]3CCC4=CC(=O)C=C[C@]4(C)[C@H]3C(=O)C[C@]2(C)[C@@]1(O)C(=O)CO [Meprednisone],> 45.8 µM,> 45.8 µM
CC1(C)O[C@@H]2C[C@H]3[C@@H]4C[C@H](F)C5=CC(=O)C=C[C@]5(C)[C@@]4(F)[C@@H](O)C[C@]3(C)[C@]2(C(=O)CO)O1 [Fluocinolone acetonide],> 45.8 µM,> 45.8 µM
Cn1c(=O)c2[nH]c(Br)nc2n(C)c1=O [8-Bromotheophylline],> 45.8 µM,> 45.8 µM
